Earlier results as cited in patent publication US9884123B2, “Ligand-targeted molecules and methods thereof” (INVICTUS ONCOLOGY PVT. LTD., priority 2012, dated 2018).

Tested on: not given
Conditions: Table 1, numeric value; test system not given; read-out: IC50

Q: With `Cc1c[nH]c2c1[C@@]13C[C@@H]1CN(C(=O)c1cc4cc(NC(=O)c5cc6ccccc6o5)ccc4[nH]1)C3=CC2=O` [Adozelesin (DC1), Adozelesin] as the compound, how does the IC50 read?
A: The IC50 was 20 pM.

Same assay, conditions: Table 1, order of magnitude in words; test system not given

Q: Which IC50 does the source give for Auristatins E and F here?
A: Its IC50 is “nM to”.

Q: With `C=C1C[C@H](C)C[C@@H]2CC=C[C@@H](C/C=C\C(=O)O[C@H]([C@@H](O)/C=C/[C@@H]3CC(C)=CCO3)C[C@@H]3O[C@H]3[C@@H](O)C1)O2` [Laulimalide] as the compound, how does the IC50 read?
A: The IC50 was “Low nM”.

Q: With `CCCCCCC[C@H](O)CC[C@H](O)[C@H]1CC[C@H]([C@H]2CC[C@H]([C@H](O)CCCCCCCCCC[C@@H](O)CC3=C[C@H](C)OC3=O)O2)O1` [27-hydroxybullatacin] as the compound, how does the IC50 read?
A: The IC50 was “Low pM”.

Q: With `COc1cc([C@@H]2c3cc4c(cc3[C@@H](O[C@@H]3O[C@@H]5CO[C@@H](c6cccs6)O[C@H]5[C@H](O)[C@H]3O)[C@H]3COC(=O)[C@H]23)OCO4)cc(OC)c1O` [Teniposide] as the compound, how does the IC50 read?
A: The IC50 was “Low nM”.

Q: For Calicheamicins, which IC50 is on record?
A: The IC50 was “Picomolar”.

Q: Which IC50 does the source give for `CC[C@@H](/C=C(/C)[C@H]1C[C@H](OC)C[C@@H](O)C(C)(C)[C@]2(O)O[C@H](C[C@H](OC)[C@@H](O)C(=O)O1)C[C@H](OC)[C@@H]2O)CO` [Peloruside A] here?
A: The IC50 was “Low nM”.

Q: Which IC50 does the source give for `CC(=O)O[C@@H](C)/C=C\C(=O)N[C@@H]1C[C@H](C)[C@H](C/C=C(C)/C=C/[C@H]2OC(C)(C)C[C@@]3(CO3)[C@@H]2O)O[C@@H]1C` [Meamycin] here?
A: The IC50 was “picomolar”.

Q: For “Maytansinoid [Maytansinoid (DM1 and DM4)]”, which IC50 is on record?
A: The IC50 was “nM to”.

Q: For `COc1cccc2c1C(=O)c1c(O)c3c(c(O)c1C2=O)C[C@@](O)(C(=O)CO)C[C@@H]3O[C@H]1C[C@H](N)[C@H](O)[C@H](C)O1` [Doxorubucin], which IC50 is on record?
A: The IC50 was “High nM”.

Q: Which IC50 does the source give for `COc1c(O)c2c(c3cc(C(=O)N4CCc5c4c(O)c(OC)c4[nH]c(C(=O)N6CC7CC78C6=CC(=O)c6[nH]cc(C)c68)cc54)[nH]c13)CCN2C(N)=O` (stereo not shown) [CC-1065] here?
A: The IC50 was “nM to”.

Tested on: MDR cells
Conditions: not given

Q: Which “Remarks: active against MDR cells too” value does the source give for `CC(=O)O[C@@H](C)/C=C\C(=O)N[C@@H]1C[C@H](C)[C@H](C/C=C(C)/C=C/[C@H]2OC(C)(C)C[C@@]3(CO3)[C@@H]2O)O[C@@H]1C` [Meamycin] here?
A: The value was “Active”.

Q: With Epothilones A and B as the compound, how does the “Remarks: active against MDR cells too” value read?
A: The value was “Active”.
